Test results from patent publication US20200323905A1, “METHODS AND COMPOSITIONS FOR MODULATING THE IMMUNE SYSTEM” (Trustees of Boston University, priority 2019, published 2020).
Entries after “also recorded” stand apart in the source; their conditions may differ.

Legend:
Format in all cases: cell-based, mouse
WT CD4+ and CD8+ T cells = assay: T-cell proliferation assay (CellTrace Violet or CFSE); conditions: DMSO- versus verteporfin-treated, 3 days post stimulation with IL-2, anti-CD3 and anti-CD28 (FIG. 6K)
Experimental: (§1) Cells were cultured and stimulated in 96-well plates at 1×10^5 cells per well. Plates were coated with anti-CD3 antibody (Biolegend) at concentrations of 0, 0.125, 0.25, 0.5, and 1 μg/ml at 4° C. overnight and were washed twice with PBS before incubation. Cells were stimulated in the anti-CD3-coated plates with soluble anti-CD28 at 2 μg/ml (Biolegend). On days 1 and 3, cells were stained with dead cell dye as well as antibodies recognizing the lineage and activation markers CD3 BUV737 (BD), CD4 BUV395 (BD), CD8 PerCP-Cy5.5 (Biolegend), CD69 PE (Biolegend), CD44 BV650 (Biolegend), and CD25 APC (Biolegend). For proliferation assays, CD4^+ or CD8^+ T cells were isolated and stained using the CellTrace Violet or CFSE Cell Proliferation Kit (Life Technologies). Briefly, purified cells were washed with PBS and incubated with CellTrace dye for 20 minutes at 37° C. protected from light. After 20 minutes, complete RMPI medium was added to the cell suspension, and the cells were incubated 5 minutes further before being washed and resuspended in complete RPMI medium. Cells were cultured in 96-well plates at 1×10^5 cells per well and were stimulated using anti-CD3/CD28 dynabeads (Gibco) at a 1:1 ratio with T cells. On days 1 and 3, cells were stained with dead cell dye, and proliferation was measured at the same time.

WT CD4+ T cells = assay: T-cell activation marker expression by flow cytometry after IL-2 and CD3/CD28 stimulation
Experimental: (§2) Spleens from WT or Yap-cKO mice were pushed through a 70 μm mesh (Falcon) using an insulin syringe plunger and washed with PBS. Cells were treated with ACK red blood cell lysis buffer, and splenocyte single-cell suspensions were prepared for magnetic separation or stained for sorting by flow cytometry. CD4^+ or CD8^+ T-cell enrichment was performed using magnetic beads (Miltenyi Biotec or STEMCELL Technologies). Naïve CD4^+ T cells were isolated using a naïve CD4^+ T-cell isolation kit (Miltenyi Biotec).
(§3) Isolated splenocytes or tumor digests were washed with PBS and stained with the LIVE/DEAD fixable near-IR dead cell stain kit (Invitrogen). Cells were then washed with stain buffer (BD), resuspended in stain buffer containing Fc block (BD), and incubated for 5 minutes at 4° C. Surface antibodies were added in predetermined concentrations, and cells were incubated for 30 minutes at 4° C. or 15 minutes at room temperature, before being washed with BD stain buffer and resuspended in PBS for flow cytometric analysis. For intracellular cytokine staining, cells were fixed and permeabilized using the BD Cytofix/Cytoperm Fixation/Permeabilization kit (BD) after dead cell dye and surface staining. For transcription factor staining, the eBioscience Foxp3/transcription factor staining buffer set was used. Flow cytometry analyses were performed on BD LSRII at Boston University School of Medicine Flow Cytometry Facility or at the University of Maryland School of Medicine Center for Innovative Biomedical Resources, Flow Cytometry Shared Service and analyzed by Flowlo (TreeStar).
as §1, with “Cells were cultured in 96-well plates at 1×10^5 cells per well and were stimulated using anti-CD3/CD28 dynabeads (Gibco) at a 1:1 ratio with T cells.” left out

WT CD8+ T cells = assay: as above
Experimental: as §2, §3
as §1, with “Cells were cultured in 96-well plates at 1×10^5 cells per well and were stimulated using anti-CD3/CD28 dynabeads (Gibco) at a 1:1 ratio with T cells.” left out

Verteporfin
Proliferation of T cells isolated from WT mice (WT CD4+ and CD8+ T cells): did not significantly affect proliferation; also recorded: neither Yap deletion nor verteporfin treatment significantly impacted T-cell proliferation
CD69 expression on WT CD4+ T cells (WT CD4+ T cells; 72 hours (3 days) post IL-2 and CD3/CD28 stimulation, increasing concentration of verteporfin (FIG. 6I, FIG. 11E)): increased levels of early activation markers
CD71 expression on WT CD4+ T cells (WT CD4+ T cells; 72 hours post IL-2 and CD3/CD28 stimulation, increasing concentration of verteporfin (FIG. 1I)): increased levels of early activation markers CD71
CD69 expression on WT CD8+ T cells (WT CD8+ T cells; 72 hours (3 days) post IL-2 and CD3/CD28 stimulation, increasing concentration of verteporfin (FIG. 6J, FIG. 11F)): increased levels of early activation markers
CD71 expression on WT CD8+ T cells (WT CD8+ T cells; 72 hours post IL-2 and CD3/CD28 stimulation, increasing concentration of verteporfin (FIG. 1J)): increased levels of early activation markers CD71
